# Laboratory results: PubChem BioAssay AID1259411 (Chemical Carcinogenesis Research Information System (CCRIS), 2018)
# Active and inactive are the calls of the source. The rule behind the calls is not given here.
# Tested on: rodent carcinogenicity bioassays, tumor incidence
# Assay: CCRIS carcinogenicity studies
# How it was run: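 NCI-built, expert-reviewed records of carcinogenicity and related test outcomes (mutagenicity, tumor promotion/inhibition) compiled from published and report sources, historical span 1985-2011, not updated.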
compound,measurement,setting,value
C1COCCO1,carcinogen call,"Species: MOUSE, Strain/Sex: B6C3F1/FEMALE, Route: ORAL, Dose: 0, 0.5, 1.0% (V/V) IN DRINKING WATER, Dose: 0, 0.5, 1.0% (V/V) IN DRINKING WATER, Tumor Site: Type of Lesion: LIVER: HEPATOCELLULAR CARCINOMA OR ADENOMA",active; positive
same,carcinogen call,"Species: MOUSE, Strain/Sex: B6C3F1/MALE, Route: ORAL, Dose: 0, 0.5, 1.0% (V/V) IN DRINKING WATER, Dose: 0, 0.5, 1.0% (V/V) IN DRINKING WATER, Tumor Site: Type of Lesion: LIVER: HEPATOCELLULAR CARCINOMA OR ADENOMA",active; positive
same,carcinogen call,"Species: MOUSE, Strain/Sex: BDF1/FEMALE, Route: ORAL, Dose: 0, 500, 2000, 8000 PPM IN DRINKING WATER FOR 104 WK (STUDY DURATION: 105 WK), Dose: 0, 500, 2000, 8000 PPM IN DRINKING WATER FOR 104 WK (STUDY DURATION: 105 WK), Tumor Site: Type of Lesion: LIVER: HEPATOCELLULAR ADENOMA, HEPATOCELLULAR CARCINOMA",active; positive
same,carcinogen call,"Species: MOUSE, Strain/Sex: BDF1/MALE, Route: ORAL, Dose: 0, 500, 2000, 8000 PPM IN DRINKING WATER FOR 104 WK (STUDY DURATION: 105 WK), Dose: 0, 500, 2000, 8000 PPM IN DRINKING WATER FOR 104 WK (STUDY DURATION: 105 WK), Tumor Site: Type of Lesion: LIVER: HEPATOCELLULAR ADENOMA, HEPATOCELLULAR CARCINOMA",active; positive
same,carcinogen call,"Species: RAT, Strain/Sex: F344/FEMALE, Route: ORAL, Dose: 0, 200, 1000, 5000 PPM IN DRINKING WATER FOR 104 WK (STUDY DURATION: 105 WK), Dose: 0, 200, 1000, 5000 PPM IN DRINKING WATER FOR 104 WK (STUDY DURATION: 105 WK), Tumor Site: Type of Lesion: NASAL CAVITY: TUMOR, LIVER: HEPATOCELLULAR ADENOMA, HEPATOCELLULAR CARCINOMA, MAMMARY GLAND: TUMOR, Tumor Site: Type of Lesion: NASAL CAVITY: TUMOR, LIVER: HEPATOCELLULAR ADENOMA, HEPATOCELLULAR CARCINOMA, MAMMARY GLAND: TUMOR",active; positive
same,carcinogen call,"Species: RAT, Strain/Sex: F344/MALE, Route: ORAL, Dose: 0, 200, 1000, 5000 PPM IN DRINKING WATER FOR 104 WK (STUDY DURATION: 105 WK), Dose: 0, 200, 1000, 5000 PPM IN DRINKING WATER FOR 104 WK (STUDY DURATION: 105 WK), Tumor Site: Type of Lesion: NASAL CAVITY: TUMOR, LIVER: HEPATOCELLULAR ADENOMA, HEPATOCELLULAR CARCINOMA, PERITONEUM: MESOTHELIOMA, SUBCUTIS: FIBROM, Tumor Site: Type of Lesion: NASAL CAVITY: TUMOR, LIVER: HEPATOCELLULAR ADENOMA, HEPATOCELLULAR CARCINOMA, PERITONEUM: MESOTHELIOMA, SUBCUTIS: FIBROM",active; positive
same,carcinogen call,"Species: RAT, Strain/Sex: OSBORNE-MENDEL/FEMALE, Route: ORAL, Dose: 0, 0.5, 1.0% (V/V) IN DRINKING WATER, Dose: 0, 0.5, 1.0% (V/V) IN DRINKING WATER, Tumor Site: Type of Lesion: NASAL TURBINATES: SQUAMOUS CELL CARCINOMA, LIVER: HEPATOCELLULAR ADENOMA",active; positive
same,carcinogen call,"Species: RAT, Strain/Sex: OSBORNE-MENDEL/MALE, Route: ORAL, Dose: 0, 0.5, 1.0% (V/V) IN DRINKING WATER, Dose: 0, 0.5, 1.0% (V/V) IN DRINKING WATER, Tumor Site: Type of Lesion: NASAL TURBINATES: SQUAMOUS CELL CARCINOMA",active; positive
same,carcinogen call,"Species: RAT, Strain/Sex: SHERMAN/MALE,FEMALE, Route: ORAL, Dose: 0.01, 0.1, 1.0% IN DRINKING WATER FOR UP TO 716 D, Dose: 0.01, 0.1, 1.0% IN DRINKING WATER FOR UP TO 716 D, Tumor Site: Type of Lesion: LIVER: HEPATOCELLULAR CARCINOMA, CHOLANGIOMA",active; positive
same,carcinogen call,"Species: RAT, Strain/Sex: SPRAGUE-DAWLEY/MALE, Route: ORAL, Dose: 0.75, 1.0, 1.4, 1.8% IN DRINKING WATER FOR 13 MO, Dose: 0.75, 1.0, 1.4, 1.8% IN DRINKING WATER FOR 13 MO, Tumor Site: Type of Lesion: NASAL CAVITY: SQUAMOUS CELL CARCINOMA, ADENOCARCINOMA, LIVER: HEPATOMA, HEPATOCELLULAR CARCINOMA",active; positive
same,carcinogen call,"Species: RAT, Strain/Sex: WISTAR/MALE, Route: ORAL, Dose: 1% IN DRINKING WATER FOR 63 WK, Tumor Site: Type of Lesion: LIVER: NEOPLASTIC NODULE, HEPATOCELLULAR CARCINOMA",active; positive
CC(C)=CC1C(C(=O)OC(C#N)c2cccc(Oc3ccccc3)c2)C1(C)C (stereo unspecified),carcinogen call,"Species: Mouse, Strain/Sex: B6C3F1/Female (80/group), Route: Oral, Dose: 0, 100, 300, 1,000 ppm of 94.6-94.9% pure cyphenothrin for 104 wk, Dose: 0, 100, 300, 1,000 ppm of 94.6-94.9% pure cyphenothrin for 104 wk",inactive; negative (study details not presented by dpr evaluator)
same,carcinogen call,"Species: Mouse, Strain/Sex: B6C3F1/Male (80/group), Route: Oral, Dose: 0, 100, 300, 1,000 ppm of 94.6-94.9% pure cyphenothrin for 104 wk, Dose: 0, 100, 300, 1,000 ppm of 94.6-94.9% pure cyphenothrin for 104 wk",inactive; negative (study details not presented by dpr evaluator)
O=Cc1ccc(CCl)o1,carcinogen call,"Species: MOUSE, Strain/Sex: B6C3F1/MALE, Route: INTRAPERITONEAL, Dose: 0, 0.1, 0.25 UMOL/G IN 5 µL DMSO/G BW ONCE (STUDY DURATION: 10 MO), Dose: 0, 0.1, 0.25 UMOL/G IN 5 µL DMSO/G BW ONCE (STUDY DURATION: 10 MO), Tumor Site: Type of Lesion: LIVER: TUMOR",active; positive
[CH3][Hg][Cl],carcinogen call,"Species: MOUSE, Strain/Sex: B6C3F1/FEMALE, Route: ORAL, Dose: 0, 0.4, 2, 10 PPM IN DIET FOR 104 WK (STUDY DURATION: 104 WK), Dose: 0, 0.4, 2, 10 PPM IN DIET FOR 104 WK (STUDY DURATION: 104 WK)",inactive; negative
same,carcinogen call,"Species: MOUSE, Strain/Sex: B6C3F1/MALE, Route: ORAL, Dose: 0, 0.4, 2, 10 PPM IN DIET FOR 104 WK (STUDY DURATION: 104 WK), Dose: 0, 0.4, 2, 10 PPM IN DIET FOR 104 WK (STUDY DURATION: 104 WK), Tumor Site: Type of Lesion: KIDNEY: CARCINOMA, ADENOMA",active; positive
same,carcinogen call,"Species: MOUSE, Strain/Sex: ICR/FEMALE, Route: ORAL, Dose: 0, 0.4, 2, 10 PPM IN DIET FOR 104 WK (STUDY DURATION: 104 WK), Dose: 0, 0.4, 2, 10 PPM IN DIET FOR 104 WK (STUDY DURATION: 104 WK)",inactive; negative
same,carcinogen call,"Species: MOUSE, Strain/Sex: ICR/FEMALE, Route: ORAL, Dose: 0, 10 PPM IN BASAL DIET ADMINISTERED TO SPAYED MICE FOR 80 WK (STUDY DURATION: 80 WK)",inactive; negative
same,carcinogen call,"Species: MOUSE, Strain/Sex: ICR/FEMALE, Route: ORAL, Dose: 0, 10 PPM IN BASAL DIET FOR 80 WK (STUDY DURATION: 80 WK)",inactive; negative
same,carcinogen call,"Species: MOUSE, Strain/Sex: ICR/FEMALE, Route: ORAL, Dose: 0, 15 PPM IN DIET FOR 78 WK (STUDY DURATION: 78 WK)",inactive; negative
same,carcinogen call,"Species: MOUSE, Strain/Sex: ICR/MALE, Route: ORAL, Dose: 0, 0.4, 2, 10 PPM IN DIET FOR 104 WK (STUDY DURATION: 104 WK), Dose: 0, 0.4, 2, 10 PPM IN DIET FOR 104 WK (STUDY DURATION: 104 WK), Tumor Site: Type of Lesion: KIDNEY: ADENOCARCINOMA",active; positive
same,carcinogen call,"Species: MOUSE, Strain/Sex: ICR/MALE, Route: ORAL, Dose: 0, 10 PPM IN BASAL DIET ADMINISTERED TO CASTRATED MICE FOR 80 WK (STUDY DURATION: 80 WK)",inactive; negative
same,carcinogen call,"Species: MOUSE, Strain/Sex: ICR/MALE, Route: ORAL, Dose: 0, 10 PPM IN BASAL DIET FOR 80 WK (STUDY DURATION: 80 WK), Tumor Site: Type of Lesion: KIDNEY: ADENOCARCINOMA",active; positive
same,carcinogen call,"Species: MOUSE, Strain/Sex: ICR/MALE, Route: ORAL, Dose: 0, 15 PPM IN DIET FOR 78 WK (STUDY DURATION: 78 WK), Tumor Site: Type of Lesion: KIDNEY: ADENOCARCINOMA, ADENOMA",active; positive
same,carcinogen call,"Species: RAT, Strain/Sex: SPRAGUE-DAWLEY/FEMALE, Route: ORAL, Dose: 0, 0.4, 2, 10 PPM IN DIET FOR 130 WK (STUDY DURATION: 130 WK), Dose: 0, 0.4, 2, 10 PPM IN DIET FOR 130 WK (STUDY DURATION: 130 WK)",inactive; negative
same,carcinogen call,"Species: RAT, Strain/Sex: SPRAGUE-DAWLEY/MALE, Route: ORAL, Dose: 0, 0.4, 2, 10 PPM IN DIET FOR 130 WK (STUDY DURATION: 130 WK), Dose: 0, 0.4, 2, 10 PPM IN DIET FOR 130 WK (STUDY DURATION: 130 WK)",inactive; negative
